Data reported in patent US7541368B2, “Pyrazoles as inhibitors of tumor necrosis factor” (Aventis Pharmaceuticals Inc., priority 2003, dated 2009).

Tested on: TNF-alpha release in THP-1 cells
Assay: LPS-induced TNF-alpha release in THP-1 cells
Assay type: cell-based
Conditions: Homo sapiens, THP-1, LPS-stimulated THP-1 cells; read-out: 50% inhibition in the LPS-induced TNF-alpha release in THP-1 cells assay at concentrations within the range
Description: The effects of compounds on TNF-alpha production by lipopolysaccharide (LPS)-stimulated […] monocytes were examined as follows.
Undifferentiated THP-1 cells were maintained in RPMI 1640 with Glutamax I containing β-mercaptoethananol (50 μM) and foetal calf serum (FCS-10%) at densities of about 1×10^6 cells per ml. For incubations without and with test reagents, cells were seeded at the indicated densities under serum-deprived (1% FCS) conditions. Compounds were dissolved in dimethylsulfoxide (DMSO-100%) and incubated with the cells to give a fmal DMSO concentration of 0.3%. Control and untreated cell samples were incubated with DMSO (0.3%).
THP-1 cells (1×10 ^6 cells/ml, total volume 150 μl) in culture medium were incubated for 1 hour (5% CO2, 37° C.) with fresh medium containing compounds or vehicle (0.1-0.3% dimethylsulfoxide). LPS (20 μg/ml) was then added to the cells and the incubation continued for a fuirther 18 hours. Cell supernatants were removed into 96 well plates for storage at −20° C.
TNF-alpha concentrations in cell supernatants were quantified by sandwich ELISA. Briefly, ELISA plates were coated overnight with 2 μg/ml of mouse anti-human TNF-alpha antibody in bicarbonate buffer (pH 9.9). After washing the wells with wash buffer (0.05% (v/v) Tween in PBS)and blocking unoccupied sites (1% BSA in wash buffer), monocyte supernatant samples or human recombinant TNF-alpha standards were added into the corresponding wells of the ELISA plate at 1:10 dilution. Biotinylated rabbit polyclonal anti-human TNF-alpha antibody (3 μg/ml) was used as the second antibody and streptavidin-horseradish peroxidase was used as the detection antibody. The peroxidase substrate is 3,3′,5,5′-tetramethylbenzidine (TMB) in the presence of hydrogen peroxide.
TNFα concentrations in supernatants from control and LPS-stimulated monocyte incubations were calculated by interpolation from a standard (log/log) curve (0.125-16 ng/ml) fitted by Excel Fit using the Activity Base software. Compounds were tested within the concentration range of 1×10^−9M to 1×10^−6M.

IC50, 10 to 500 nM:
Cc1ccc(-n2nc(C(C)(C)C)cc2NC(=O)Nc2cccc(CC3CCN(C(=O)Cc4cccs4)CC3)c2)cc1 [Compound A189, 1-(5-tert-Butyl-2-p-tolyl-2H-pyrazol-3-yl)-3-{3-[1-(2-thiophen-2-yl-acetyl)-piperidin-4-ylmethyl]-phenyl}-urea]
Cc1ccc(-n2nc(C(C)(C)C)cc2NC(=O)Nc2cccc(CC3CCN(C(=O)Cc4ccsc4)CC3)c2)cc1 [Compound A190, 1-(5-tert-Butyl-2-p-tolyl-2H-pyrazol-3-yl)-3-{3-[1-(2-thiophen-3-yl-acetyl)-piperidin-4-ylmethyl]-phenyl}-urea]
CO[C@H](C(=O)N1CCC(Cc2ccc(NC(=O)Nc3cc(C(C)(C)C)nn3-c3ccc(C)cc3)cc2)CC1)c1ccccc1 [Compound A193, 1-(5-tert-Butyl-2-p-tolyl-2H-pyrazol-3-yl)-3-{4-[1-((S)-2-methoxy-2-phenyl-acetyl)-piperidin-4-ylmethyl]-phenyl}-urea]
Cc1ccc(-n2nc(C(C)(C)C)cc2NC(=O)Nc2ccc(CC3CCN(C(=O)c4csnn4)CC3)cc2)cc1 [Compound A196, 1-(5-tert-Butyl-2-p-tolyl-2H-pyrazol-3-yl)-3-{4-[1-([1,2,3]thiadiazole-4-carbonyl)-piperidin-4-ylmethyl]-phenyl}-urea]
Cc1ccc(-n2nc(C(C)(C)C)cc2NC(=O)Nc2ccc(CC3CCN(C(=O)c4ccc5cnccc5n4)CC3)cc2)cc1 [Compound A197, 1-(5-tert-Butyl-2-p-tolyl-2H-pyrazol-3-yl)-3-{4-[1-([1,6]naphthyridine-2-carbonyl)-piperidin-4-ylmethyl]-phenyl}-urea]
Cc1ccc(-n2nc(C(C)(C)C)cc2NC(=O)Nc2ccc(CC3CCN(C(=O)C4(C)CC4)CC3)cc2)cc1 [Compound A206, 1-(5-tert-Butyl-2-p-tolyl-2H-pyrazol-3-yl)-3-{4-[1-(1-methyl-cyclopropanecarbonyl)-piperidin-4-ylmethyl]-phenyl}-urea]
COc1cccc(C(=O)N2CCC(Cc3ccc(NC(=O)Nc4cc(C(C)(C)C)nn4-c4ccc(C)cc4)cc3)CC2)c1OC [Compound A212, 1-(5-tert-Butyl-2-p-tolyl-2H-pyrazol-3-yl)-3-{4-[1-(2,3-dimethoxy-benzoyl)-piperidin-4-ylmethyl]-phenyl}-urea]
COc1cccc(CC(=O)N2CCC(Cc3ccc(NC(=O)Nc4cc(C(C)(C)C)nn4-c4ccc(C)cc4)cc3)CC2)c1OC [Compound A213, 1-(5-tert-Butyl-2-p-tolyl-2H-pyrazol-3-yl)-3-(4-{1-[2-(2,3-dimethoxy-phenyl)-acetyl]-piperidin-4-ylmethyl}-phenyl)-urea]
COc1cc(OC)c(C(=O)N2CCC(Cc3ccc(NC(=O)Nc4cc(C(C)(C)C)nn4-c4ccc(C)cc4)cc3)CC2)c(OC)c1 [Compound A215, 1-(5-tert-Butyl-2-p-tolyl-2H-pyrazol-3-yl)-3-{4-[1-(2,4,6-trimethoxy-benzoyl)-piperidin-4-ylmethyl]-phenyl}-urea]
Cc1ccc(-n2nc(C(C)(C)C)cc2NC(=O)Nc2ccc(CC3CCN(C(=O)c4c(C)cc(C)cc4C)CC3)cc2)cc1 [Compound A216, 1-(5-tert-Butyl-2-p-tolyl-2H-pyrazol-3-yl)-3-{4-[1-(2,4,6-trimethyl-benzoyl)-piperidin-4-ylmethyl]-phenyl}-urea]
Cc1ccc(-n2nc(C(C)(C)C)cc2NC(=O)Nc2ccc(CC3CCN(C(=O)c4cc(C)oc4C)CC3)cc2)cc1 [Compound A222, 1-(5-tert-Butyl-2-p-tolyl-2H-pyrazol-3-yl)-3-{4-[1-(2,5-dimethyl-furan-3-carbonyl)-piperidin-4-ylmethyl]-phenyl}-urea]
COc1ccc(C(=O)N2CCC(Cc3ccc(NC(=O)Nc4cc(C(C)(C)C)nn4-c4ccc(C)cc4)cc3)CC2)c(OC)n1 [Compound A224, 1-(5-tert-Butyl-2-p-tolyl-2H-pyrazol-3-yl)-3-{4-[1-(2,6-dimethoxy-pyridine-3-carbonyl)-piperidin-4-ylmethyl]-phenyl}-urea]
Cc1ccc(-n2nc(C(C)(C)C)cc2NC(=O)Nc2ccc(CC3CCN(C(=O)c4csc(-c5cccnc5)n4)CC3)cc2)cc1 [Compound A225, 1-(5-tert-Butyl-2-p-tolyl-2H-pyrazol-3-yl)-3-{4-[1-(2-pyridin-3-yl-thiazole-4-carbonyl)-piperidin-4-ylmethyl]-phenyl}-urea]
Cc1ccc(-n2nc(C(C)(C)C)cc2NC(=O)Nc2ccc(CC3CCN(C(=O)c4csc(-c5ccncc5)n4)CC3)cc2)cc1 [Compound A227, 1-(5-tert-Butyl-2-p-tolyl-2H-pyrazol-3-yl)-3-{4-[1-(2-pyridin-4-yl-thiazole-4-carbonyl)-piperidin-4-ylmethyl]-phenyl}-urea]
Cc1ccc(-n2nc(C(C)(C)C)cc2NC(=O)Nc2ccc(CC3CCN(C(=O)c4cccnc4N)CC3)cc2)cc1 [Compound A231, 1-{4-[1-(2-Amino-pyridine-3-carbonyl)-piperidin-4-ylmethyl]-phenyl}-3-(5-tert-butyl-2-p-tolyl-2H-pyrazol-3-yl)-urea]
Cc1ccc(-n2nc(C(C)(C)C)cc2NC(=O)Nc2ccc(CC3CCN(C(=O)c4cc5ccccc5o4)CC3)cc2)cc1 [Compound A232, 1-{4-[1-(Benzofuran-2-carbonyl)-piperidin-4-ylmethyl]-phenyl}-3-(5-tert-butyl-2-p-tolyl-2H-pyrazol-3-yl)-urea]
Cc1ccc(-n2nc(C(C)(C)C)cc2NC(=O)Nc2ccc(CC3CCN(C(=O)c4ccc(S(C)(=O)=O)cc4Cl)CC3)cc2)cc1 [Compound A233, 1-(5-tert-Butyl-2-p-tolyl-2H-pyrazol-3-yl)-3-{4-[1-(2-chloro-4-methanesulfonyl-benzoyl)-piperidin-4-ylmethyl]-phenyl}-urea]
Cc1ccc(-n2nc(C(C)(C)C)cc2NC(=O)Nc2ccc(CC3CCN(C(=O)c4cccnc4Cl)CC3)cc2)cc1 [Compound A235, 1-(5-tert-Butyl-2-p-tolyl-2H-pyrazol-3-yl)-3-{4-[1-(2-chloro-pyridine-3-carbonyl)-piperidin-4-ylmethyl]-phenyl}-urea]
Cc1ccc(-n2nc(C(C)(C)C)cc2NC(=O)Nc2ccc(CC3CCN(C(=O)Cc4ccccc4F)CC3)cc2)cc1 [Compound A236, 1-(5-tert-Butyl-2-p-tolyl-2H-pyrazol-3-yl)-3-(4-{1-[2-(2-fluoro-phenyl)-acetyl]-piperidin-4-ylmethyl}-phenyl)-urea]
Cc1ccc(-n2nc(C(C)(C)C)cc2NC(=O)Nc2ccc(CC3CCN(C(=O)c4ccco4)CC3)cc2)cc1 [Compound A237, 1-(5-tert-Butyl-2-p-tolyl-2H-pyrazol-3-yl)-3-{4-[1-(furan-2-carbonyl)-piperidin-4-ylmethyl]-phenyl}-urea]
CCCCC#CC(=O)N1CCC(Cc2ccc(NC(=O)Nc3cc(C(C)(C)C)nn3-c3ccc(C)cc3)cc2)CC1 [Compound A238, 1-(5-tert-Butyl-2-p-tolyl-2H-pyrazol-3-yl)-3-[4-(1-hept-2-ynoyl-piperidin-4-ylmethyl)-phenyl]-urea]
Cc1ccc(-n2nc(C(C)(C)C)cc2NC(=O)Nc2ccc(CC3CCN(C(=O)c4cc(O)nc5ccccc45)CC3)cc2)cc1 [Compound A240, 1-(5-tert-Butyl-2-p-tolyl-2H-pyrazol-3-yl)-3-{4-[1-(2-hydroxy-quinoline-4-carbonyl)-piperidin-4-ylmethyl]-phenyl}-urea]
Cc1ccc(-n2nc(C(C)(C)C)cc2NC(=O)Nc2ccc(CC3CCN(C(=O)c4cc5cnccc5nc4C)CC3)cc2)cc1 [Compound A243, 1-(5-tert-Butyl-2-p-tolyl-2H-pyrazol-3-yl)-3-{4-[1-(2-methyl-[1,6]naphthyridine-3-carbonyl)-piperidin-4-ylmethyl]-phenyl}-urea]
Cc1ccc(-n2nc(C(C)(C)C)cc2NC(=O)Nc2ccc(CC3CCN(C(=O)c4ccoc4C)CC3)cc2)cc1 [Compound A244, 1-(5-tert-Butyl-2-p-tolyl-2H-pyrazol-3-yl)-3-{4-[1-(2-methyl-furan-3-carbonyl)-piperidin-4-ylmethyl]-phenyl}-urea]
Cc1ccc(-n2nc(C(C)(C)C)cc2NC(=O)Nc2ccc(CC3CCN(C(=O)c4cc5cccnc5nc4C)CC3)cc2)cc1 [Compound A249, 1-(5-tert-Butyl-2-p-tolyl-2H-pyrazol-3-yl)-3-{4-[1-(2-methyl-[1,8]naphthyridine-3-carbonyl)-piperidin-4-ylmethyl]-phenyl}-urea]
Cc1ccc(-n2nc(C(C)(C)C)cc2NC(=O)Nc2ccc(CC3CCN(C(=O)c4cccnc4C)CC3)cc2)cc1 [Compound A251, 1-(5-tert-Butyl-2-p-tolyl-2H-pyrazol-3-yl)-3-{4-[1-(2-methyl-pyridine-3-carbonyl)-piperidin-4-ylmethyl]-phenyl}-urea]
